Each molecule was assayed on R. toruloides DL-XSY01 (assay: Antibiotic sensitivity test, disc diffusion method). Conditions: YPD-agar, 28° C., 24 h.
Format: cell-based
Description: The antibiotic sensitivity spectrum of the R. toruloides DL-XSY01 was characterized by using a disc diffusion method. […] The above medium with each type of paper was statically cultured at 28° C. for 24 h, and then the diameter of an inhibition zone was measured and counted; and analysis was performed on the drug resistance R (≤14 mm), intermediate-phase I (14-20 mm) or sensitivity S (≥20 mm), with three replicates for each group.
For `NCC[C@H](O)C(=O)N[C@@H]1C[C@H](N)[C@@H](O[C@H]2O[C@H](CN)[C@@H](O)[C@H](O)[C@H]2O)[C@H](O)[C@H]1O[C@H]1O[C@H](CO)[C@@H](O)[C@H](N)[C@H]1O` [Amikacin], the “Antibiotic sensitivity of DL-XSY01 (in words)” value was “sensitive” and the “Antibiotic sensitivity of DL-XSY01 (inhibition zone class)” value was “S (sensitivity S (≥20 mm))”. `CC1(C)S[C@@H]2[C@H](NC(=O)[C@H](N)c3ccccc3)C(=O)N2[C@H]1C(=O)O` [Ampicillin] was tested, and the “Antibiotic sensitivity of DL-XSY01 (in words)” value was “sensitive” and the “Antibiotic sensitivity of DL-XSY01 (inhibition zone class)” value was “S (sensitivity S (≥20 mm))”. In the case of `Cc1nnc(SCC2=C(C(=O)O)N3C(=O)[C@@H](NC(=O)Cn4cnnn4)[C@H]3SC2)s1` [Cefazolin], the “Antibiotic sensitivity of DL-XSY01 (in words)” value is reported as “sensitive” and the “Antibiotic sensitivity of DL-XSY01 (inhibition zone class)” value is reported as “S (sensitivity S (≥20 mm))”. In the case of `CC1=C(C(=O)O)N2C(=O)[C@@H](NC(=O)[C@H](N)c3ccccc3)[C@H]2SC1` [Cephalexin], the “Antibiotic sensitivity of DL-XSY01 (in words)” value is reported as “moderately sensitive” and the “Antibiotic sensitivity of DL-XSY01 (inhibition zone class)” value is reported as “I (intermediate-phase I (14-20 mm))”. `CC[C@H]1OC(=O)[C@H](C)[C@@H](O[C@H]2C[C@@](C)(OC)[C@@H](O)[C@H](C)O2)[C@H](C)[C@@H](O[C@@H]2O[C@H](C)C[C@H](N(C)C)[C@H]2O)[C@](C)(O)C[C@@H](C)C(=O)[C@H](C)[C@@H](O)[C@]1(C)O` [Erythromycin] was tested, and the “Antibiotic sensitivity of DL-XSY01 (in words)” value was “sensitive” and the “Antibiotic sensitivity of DL-XSY01 (inhibition zone class)” value was “S (sensitivity S (≥20 mm))”. In the case of `CN(C)c1ccc(O)c2c1C[C@H]1C[C@H]3[C@H](N(C)C)C(O)=C(C(N)=O)C(=O)[C@@]3(O)C(O)=C1C2=O` [Minocycline], the “Antibiotic sensitivity of DL-XSY01 (inhibition zone class)” value is reported as “S (sensitivity S (≥20 mm))”. With `CC1(C)S[C@@H]2[C@H](NC(=O)Cc3ccccc3)C(=O)N2[C@H]1C(=O)O` [Penicillin G] the “Antibiotic sensitivity of DL-XSY01 (in words)” value was “sensitive” and the “Antibiotic sensitivity of DL-XSY01 (inhibition zone class)” value was “S (sensitivity S (≥20 mm))”. `[H]/N=C(/N)N[C@H]1[C@H](O)[C@@H](O)[C@H](O[C@@H]2O[C@@H](C)[C@](O)(C=O)[C@H]2O[C@@H]2O[C@@H](CO)[C@H](O)[C@@H](O)[C@@H]2NC)[C@@H](N/C(N)=N\[H])[C@@H]1O` [Streptomycin] was tested, and the “Antibiotic sensitivity of DL-XSY01 (in words)” value was “sensitive” and the “Antibiotic sensitivity of DL-XSY01 (inhibition zone class)” value was “S (sensitivity S (≥20 mm))”. For `CN(C)[C@@H]1C(O)=C(C(N)=O)C(=O)[C@@]2(O)C(O)=C3C(=O)c4c(O)cccc4[C@@](C)(O)[C@H]3C[C@@H]12` [Tetracycline], the “Antibiotic sensitivity of DL-XSY01 (inhibition zone class)” value was “S (sensitivity S (≥20 mm))”. For `CN[C@H](CC(C)C)C(=O)N[C@H]1C(=O)N[C@@H](CC(N)=O)C(=O)N[C@H]2C(=O)N[C@H]3C(=O)N[C@H](C(=O)N[C@H](C(=O)O)c4cc(O)cc(O)c4-c4cc3ccc4O)[C@H](O)c3ccc(c(Cl)c3)Oc3cc2cc(c3O[C@@H]2O[C@H](CO)[C@@H](O)[C@H](O)[C@H]2O[C@H]2C[C@](C)(N)[C@H](O)[C@H](C)O2)Oc2ccc(cc2Cl)[C@H]1O` [Vancomycin], the “Antibiotic sensitivity of DL-XSY01 (in words)” value was “sensitive” and the “Antibiotic sensitivity of DL-XSY01 (inhibition zone class)” value was “S (sensitivity S (≥20 mm))”. For Gentamicin, the “Antibiotic sensitivity of DL-XSY01 (in words)” value was “sensitive” and the “Antibiotic sensitivity of DL-XSY01 (inhibition zone class)” value was “S (sensitivity S (≥20 mm))”.
